Reference: patent US7994320B2, “Narcistatin prodrugs” (priority 2002, dated 2011)

Assays:
BXPC-3 = assay: Human cancer cell line growth inhibition, pancreas BXPC-3; assay type: cell-based
Description: (§1) Narciclasine cyclic phosphate prodrugs 3a-o were evaluated against a minipanel of human cancer cell lines and the murine P388 lymphocytic leukemia. The GI50 0.1-0.02 μg/ml strong activity range parallels that already reported for the parent, narciclasine (1). (Pettit, G. R.; Melody, N.; Herald, D. L. J. Org. Chem. 2001, 66, 2583-2587.)

MCF-7 = assay: Human cancer cell line growth inhibition, breast MCF-7; assay type: cell-based
Description: as §1

SF 268 = assay: Human cancer cell line growth inhibition, CNS SF 268; assay type: cell-based
Description: as §1

NCI-H460 = assay: Human cancer cell line growth inhibition, lung NCI-H460; assay type: cell-based
Description: as §1

KM20L2 = assay: Human cancer cell line growth inhibition, colon KM20L2; assay type: cell-based
Description: as §1

DU-145 = assay: Human cancer cell line growth inhibition, prostate DU-145; assay type: cell-based
Description: as §1

M5076 sarcoma = settings: U.S. National Cancer Institute research; cited from earlier work
[1] = tested on: P388 lymphocytic leukemia; settings: U.S. National Cancer Institute research; cited from earlier work
[2] = tested on: Erlich asciter cancer cells; settings: cited from earlier work
Solubility in water = settings: solvent not stated

Compound | GI50 Pancreas-a BXPC-3 (BXPC-3) [µg/mL] | GI50 Breast MCF-7 (MCF-7) [µg/mL] | GI50 CNS SF 268 (SF 268) [µg/mL] | GI50 Lung-NSC NCI-H460 (NCI-H460) [µg/mL] | GI50 Colon KM20L2 (KM20L2) [µg/mL] | GI50 Prostate DU-145 (DU-145) [µg/mL] | activity against in vivo growth of M5076 sarcoma (M5076 sarcoma) | activity against in vivo growth of P388 lymphocytic leukemia [1] | inhibition of protein synthesis [2] | solubility (Solubility in water)
O=C1N[C@@H]2C(=C[C@H](O)[C@H]3OP(=O)(O)O[C@H]32)c2cc3c(c(O)c21)OCO3.c1ccncc1 [Compound 3a, Pyridinium Narcistatin] | 0.22 | 0.27 | 0.15 | 0.27 | 0.34 | 0.17 |  |  |  | 
O=C1NC2C(=CC(O)C3OP(=O)([O-])OC23)c2cc3c(c(O)c21)OCO3.O=C1NC2C(=CC(O)C3OP(=O)([O-])OC23)c2cc3c(c(O)c21)OCO3.[Mn+2] (stereo not shown) [Compound 3j, Manganese Narcistatin] | 0.049 | 0.07 | 0.04 | 0.15 | 0.13 | 0.034 |  |  |  | 
C=C[C@@H]1CN2CC[C@@H]1C[C@H]2[C@@H](O)c1ccnc2ccc(OC)cc12.O=C1N[C@@H]2C(=C[C@H](O)[C@H]3OP(=O)(O)O[C@H]32)c2cc3c(c(O)c21)OCO3 [Compound 3k, Quinidinium Narcistatin] | 0.31 | 0.5 | 0.25 | 0.77 | 0.58 | 0.22 |  |  |  | 
C=C[C@@H]1CN2CC[C@@H]1C[C@@H]2[C@H](O)c1ccnc2ccc(OC)cc12.O=C1N[C@@H]2C(=C[C@H](O)[C@H]3OP(=O)(O)O[C@H]32)c2cc3c(c(O)c21)OCO3 [Compound 3l, Quininium Narcistatin] | 0.051 | 0.12 | 0.045 | 0.17 | 0.12 | 0.013 |  |  |  | 
C1COCCN1.O=C1N[C@@H]2C(=C[C@H](O)[C@H]3OP(=O)(O)O[C@H]32)c2cc3c(c(O)c21)OCO3 [Compound 3n, Morpholinium Narcistatin] | 0.25 | 0.48 | 0.24 | >1 | 0.54 | 0.14 |  |  |  | 
O=C1N[C@@H]2C(=C[C@H](O)[C@@H](O)[C@H]2O)c2cc3c(c(O)c21)OCO3 [narciclasine (1), narciclasine] |  |  |  |  |  |  | active | active | inhibit protein synthesis | sparingly soluble
Calcium Narcistatin [Compound 3h] | 0.045 | 0.059 | 0.031 | 0.12 | 0.059 | 0.0093 |  |  |  | 
Cesium Narcistatin [Compound 3f] | 0.41 | 0.62 | 0.33 | >1 | 0.66 | 0.13 |  |  |  | 
Imidazolium Narcistatin [Compound 3m] | 0.45 | 0.9 | 0.38 | >1 | >1 | 0.44 |  |  |  | 
Lithium Narcistatin [Compound 3c] | 0.25 | 0.31 | 0.17 | 0.3 | 0.26 | 0.13 |  |  |  | 
Magnesium Narcistatin [Compound 3g] | 0.19 | 0.25 | 0.14 | 0.29 | 0.31 | 0.1 |  |  |  | 
Narcistatin [Compound 3b] | 0.33 | 0.35 | 0.22 | 0.47 | 0.53 | 0.16 |  |  |  | 
Piperazinium Narcistatin [Compound 3o] | 0.1 | 0.17 | 0.099 | 0.24 | 0.22 | 0.032 |  |  |  | 
Potassium Narcistatin [Compound 3e] | 0.36 | 0.4 | 0.19 | 0.67 | 0.56 | 0.26 |  |  |  | 
Sodium Narcistatin [Compound 3d] | 0.32 | 0.56 | 0.23 | >1 | 0.45 | 0.12 |  |  |  | 
Zinc Narcistatin [Compound 3i] | 0.069 | 0.14 | 0.053 | 0.21 | 0.16 | 0.016 |  |  |  | 
